Source: patent publication US9163013B2, “Use of 1H-indazole-3-carboxamide compounds as glycogen synthase kinase 3 beta inhibitors” (AZIENDE CHIMICHE RIUNITE ANGELINI FRANCESCO A.C.R.A.F. …, priority 2012, dated 2015)
Several values for one entry are separate records, joined by “and”; a condition that tells them apart may be missing. Equal values may be shown once. Where a name gives a salt, the structure may show the parent alone. Read-outs that look alike come from different tables or passages of the source.

Assays:
[1] = target: JAK1 (h) (Homo sapiens (Human), UniProt P23458); assay: Kinase selectivity panel; type: biochemical; details: duplicate, read-out: % inhibition of control values, JAK1 (h)
Chain of JAK1 (h) (P23458 whole entry): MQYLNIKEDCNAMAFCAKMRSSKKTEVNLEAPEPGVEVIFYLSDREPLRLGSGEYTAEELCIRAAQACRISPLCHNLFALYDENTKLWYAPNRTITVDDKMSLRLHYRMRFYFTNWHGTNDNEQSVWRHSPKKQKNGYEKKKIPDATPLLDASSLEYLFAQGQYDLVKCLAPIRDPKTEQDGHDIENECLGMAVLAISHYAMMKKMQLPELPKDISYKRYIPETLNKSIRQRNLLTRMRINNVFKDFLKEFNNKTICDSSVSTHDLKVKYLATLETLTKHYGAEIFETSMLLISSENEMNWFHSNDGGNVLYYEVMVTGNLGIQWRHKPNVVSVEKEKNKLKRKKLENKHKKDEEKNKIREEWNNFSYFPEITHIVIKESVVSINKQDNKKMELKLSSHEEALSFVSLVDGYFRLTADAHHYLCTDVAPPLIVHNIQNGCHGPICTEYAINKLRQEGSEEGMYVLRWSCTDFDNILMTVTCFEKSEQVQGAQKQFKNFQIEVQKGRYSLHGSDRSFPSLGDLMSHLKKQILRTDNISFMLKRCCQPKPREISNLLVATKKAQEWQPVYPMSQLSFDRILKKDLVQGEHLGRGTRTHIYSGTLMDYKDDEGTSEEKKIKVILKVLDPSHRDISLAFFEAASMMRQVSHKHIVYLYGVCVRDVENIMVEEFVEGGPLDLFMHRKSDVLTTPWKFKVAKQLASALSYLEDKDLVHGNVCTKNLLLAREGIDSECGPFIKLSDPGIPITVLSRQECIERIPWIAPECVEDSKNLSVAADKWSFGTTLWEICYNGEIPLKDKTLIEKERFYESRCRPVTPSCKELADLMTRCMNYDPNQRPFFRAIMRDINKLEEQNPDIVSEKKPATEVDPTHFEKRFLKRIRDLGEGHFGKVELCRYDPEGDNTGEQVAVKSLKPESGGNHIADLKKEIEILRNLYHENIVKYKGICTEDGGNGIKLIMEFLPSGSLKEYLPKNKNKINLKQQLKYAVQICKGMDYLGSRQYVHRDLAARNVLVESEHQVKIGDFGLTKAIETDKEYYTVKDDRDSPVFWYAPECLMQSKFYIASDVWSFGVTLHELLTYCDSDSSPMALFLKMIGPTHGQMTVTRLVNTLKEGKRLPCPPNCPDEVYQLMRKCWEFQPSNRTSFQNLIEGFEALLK
Procedure, shortened: (§1)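 Compounds at 10 μM (duplicate wells) are profiled against human recombinant kinases that phosphorylate peptide substrates with ATP over 10–90 min at 22° C. LANCE or HTRF read-out quantifies the phosphorylated product, and values represent % inhibition versus control.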

[2] = target: human GSK-3β (Homo sapiens (Human), UniProt P49841); assay: Activity on human GSK-3β, substrate phosphorylation measured by LANCE technology; type: biochemical
Chain of human GSK-3β (P49841 whole entry): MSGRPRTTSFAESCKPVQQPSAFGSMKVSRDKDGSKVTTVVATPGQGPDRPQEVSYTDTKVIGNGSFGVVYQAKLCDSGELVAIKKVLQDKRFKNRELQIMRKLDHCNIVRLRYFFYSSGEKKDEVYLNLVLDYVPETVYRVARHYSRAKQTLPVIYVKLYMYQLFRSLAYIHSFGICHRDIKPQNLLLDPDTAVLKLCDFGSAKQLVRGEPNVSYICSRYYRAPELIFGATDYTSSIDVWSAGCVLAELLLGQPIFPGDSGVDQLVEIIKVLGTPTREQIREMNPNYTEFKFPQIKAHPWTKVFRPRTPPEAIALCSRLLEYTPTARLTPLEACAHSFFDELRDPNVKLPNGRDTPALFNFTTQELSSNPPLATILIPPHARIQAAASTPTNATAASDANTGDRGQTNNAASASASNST
Procedure: Activity on human GSK-3β was assessed using the following methods (according to Meijer et al., Chem. Biol., 2003-10:1255-1266).
In a first screening assay, compounds were tested in duplicate at a concentration of 10 μM.
Human recombinant enzyme GSK-3β was incubated for 90 minutes at 22° C. in the presence of compounds or vehicle in a reaction buffer containing ATP plus 100 nM unphosphorylated specific substrate peptide (Ulight-[…]-amide). Substrate phosphorylation was measured by LANCE technology (PerkinElmer, Conn., USA).
The results, reported in the following Table 4, are expressed as a percent of inhibition of control specific activity obtained in the presence of the test compounds (as % inhibition at 10 μm).
In a second assay, the same compounds were assayed at five concentrations ranging from 100 μM to 10 nM with ten-fold dilutions in duplicate. Compounds 1 to 7, 9, 11 and 13 to 26 were tested using the same first assay, compounds 8, 10, 12, and 27 to 31 were tested in another assay based on the binding and displacement of AlexaFluor® 647 labeled, ATP-competitive Kinase inhibitor scaffold using LanthaScreen™ TR-FRET technology Eu Kinase assay packet according to manufacturer's instruction (Life Technologies, Italy).
The IC50 values (concentration causing a half maximal inhibition of control specific activity), reported in table 4, were determined by non-linear regression analysis of the inhibition curves generated with mean replicate values using Hill equation curve fitting.

[3] = target: DYRK1a (h) (Homo sapiens (Human), UniProt Q13627); assay: Kinase selectivity panel and IC50 determination; type: biochemical; details: for inhibition at 10 µM: duplicate, read-out: % inhibition of control values, DYRK1a (h)
Procedure: (§2) (a) Compound 1 was tested against a panel of 60 kinases in order to assess its selectivity. The assays were chosen taking into consideration the diversity of assay families.
(§3) Human recombinant kinases were incubated in the presence of specific peptide substrates plus ATP for different times (10, 15, 30, 60 or 90 minutes) at 22° C. Phosphorylated substrate was detected by LANCE or HTRF technology (CISBIO, MA, USA).
(§4) Compound 1 was tested at 10 μM in duplicate.
(§5) The results are expressed as a percent of inhibition of control specific activity obtained in the presence of the test compound 1 and are reported in the following Table 5.
(§6) Compound 1 was also assayed to determine the IC50 values for three different kinases (PCTAIRE1, DYRK1a, and CDK2) in comparison to Gsk3β. The assay was conducted with the same method described above in test I, second assay.
(§7) (b) Compounds 7, 12, 21 and 24 were tested against the same panel of 60 kinases under the same conditions described above for compound 1.
(§8) The results are expressed as a percent of inhibition of control specific activity obtained in the presence of the test compounds and are reported in the following Table 6.

[4] = target: CDK2 (h) (cycA) (Homo sapiens (Human), UniProt P24941); assay: Kinase selectivity panel and IC50 determination; type: biochemical; details: for inhibition at 10 µM: duplicate, read-out: % inhibition of control values, CDK2 (h) (cycA)
Procedure: as §2, §3, §4, §5, §6, §7, §8

[5] = target: PCTAIRE1 kinase (h) (Homo sapiens (Human), UniProt Q00536); assay: Kinase selectivity panel and IC50 determination; type: biochemical; details: for inhibition at 10 µM: duplicate, read-out: % inhibition of control values, PCTAIRE1 kinase (h)
Chain of PCTAIRE1 kinase (h) (Q00536 whole entry): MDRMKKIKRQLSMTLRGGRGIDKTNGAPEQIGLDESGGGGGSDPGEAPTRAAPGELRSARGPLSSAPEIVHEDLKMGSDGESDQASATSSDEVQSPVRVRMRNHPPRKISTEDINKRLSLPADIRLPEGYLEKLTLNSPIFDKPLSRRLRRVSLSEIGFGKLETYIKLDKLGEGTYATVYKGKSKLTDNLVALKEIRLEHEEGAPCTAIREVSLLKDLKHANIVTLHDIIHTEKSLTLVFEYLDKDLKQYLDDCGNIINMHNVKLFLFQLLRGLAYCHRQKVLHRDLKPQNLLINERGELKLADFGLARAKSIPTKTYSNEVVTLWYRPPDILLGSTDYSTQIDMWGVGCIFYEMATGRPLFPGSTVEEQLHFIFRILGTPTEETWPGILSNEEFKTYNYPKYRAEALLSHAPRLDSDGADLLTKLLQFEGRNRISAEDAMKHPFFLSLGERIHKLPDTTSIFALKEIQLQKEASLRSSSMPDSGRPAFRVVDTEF
Procedure: as §2, §3, §4, §5, §6, §7, §8

[6] = system: AMPKalpha; assay: Kinase selectivity panel; type: biochemical, human; details: 10 μM, duplicate
Procedure: as §2, §3, §4, §5, §7, §8

[7] = target: smMLCK (h) (MYLK) (Homo sapiens (Human), UniProt Q15746); assay: Kinase selectivity panel; type: biochemical; details: duplicate, read-out: % inhibition of control values, smMLCK (h) (MYLK)
Procedure, shortened: as §1

[8] = target: p38gamma kinase (h) (Homo sapiens (Human), UniProt P53778); assay: Kinase selectivity panel; type: biochemical; details: duplicate, read-out: % inhibition of control values, p38gamma kinase (h)
Chain of p38gamma kinase (h) (P53778 whole entry): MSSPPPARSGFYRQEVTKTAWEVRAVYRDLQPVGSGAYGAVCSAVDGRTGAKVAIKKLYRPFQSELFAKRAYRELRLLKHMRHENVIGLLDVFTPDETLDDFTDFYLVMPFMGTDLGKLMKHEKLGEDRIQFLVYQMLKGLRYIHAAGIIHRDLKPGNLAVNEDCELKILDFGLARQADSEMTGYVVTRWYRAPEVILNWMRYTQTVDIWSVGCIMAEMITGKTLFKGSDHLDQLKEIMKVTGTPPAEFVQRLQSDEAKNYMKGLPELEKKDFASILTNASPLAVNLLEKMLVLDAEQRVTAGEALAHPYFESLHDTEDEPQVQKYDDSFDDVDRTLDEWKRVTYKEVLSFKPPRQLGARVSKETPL
Procedure, shortened: as §1

[9] = target: NEK1 (h) (Homo sapiens (Human), UniProt Q96PY6); assay: Kinase selectivity panel; type: biochemical; details: duplicate, read-out: % inhibition of control values, NEK1 (h)
Chain of NEK1 (h) (Q96PY6 whole entry): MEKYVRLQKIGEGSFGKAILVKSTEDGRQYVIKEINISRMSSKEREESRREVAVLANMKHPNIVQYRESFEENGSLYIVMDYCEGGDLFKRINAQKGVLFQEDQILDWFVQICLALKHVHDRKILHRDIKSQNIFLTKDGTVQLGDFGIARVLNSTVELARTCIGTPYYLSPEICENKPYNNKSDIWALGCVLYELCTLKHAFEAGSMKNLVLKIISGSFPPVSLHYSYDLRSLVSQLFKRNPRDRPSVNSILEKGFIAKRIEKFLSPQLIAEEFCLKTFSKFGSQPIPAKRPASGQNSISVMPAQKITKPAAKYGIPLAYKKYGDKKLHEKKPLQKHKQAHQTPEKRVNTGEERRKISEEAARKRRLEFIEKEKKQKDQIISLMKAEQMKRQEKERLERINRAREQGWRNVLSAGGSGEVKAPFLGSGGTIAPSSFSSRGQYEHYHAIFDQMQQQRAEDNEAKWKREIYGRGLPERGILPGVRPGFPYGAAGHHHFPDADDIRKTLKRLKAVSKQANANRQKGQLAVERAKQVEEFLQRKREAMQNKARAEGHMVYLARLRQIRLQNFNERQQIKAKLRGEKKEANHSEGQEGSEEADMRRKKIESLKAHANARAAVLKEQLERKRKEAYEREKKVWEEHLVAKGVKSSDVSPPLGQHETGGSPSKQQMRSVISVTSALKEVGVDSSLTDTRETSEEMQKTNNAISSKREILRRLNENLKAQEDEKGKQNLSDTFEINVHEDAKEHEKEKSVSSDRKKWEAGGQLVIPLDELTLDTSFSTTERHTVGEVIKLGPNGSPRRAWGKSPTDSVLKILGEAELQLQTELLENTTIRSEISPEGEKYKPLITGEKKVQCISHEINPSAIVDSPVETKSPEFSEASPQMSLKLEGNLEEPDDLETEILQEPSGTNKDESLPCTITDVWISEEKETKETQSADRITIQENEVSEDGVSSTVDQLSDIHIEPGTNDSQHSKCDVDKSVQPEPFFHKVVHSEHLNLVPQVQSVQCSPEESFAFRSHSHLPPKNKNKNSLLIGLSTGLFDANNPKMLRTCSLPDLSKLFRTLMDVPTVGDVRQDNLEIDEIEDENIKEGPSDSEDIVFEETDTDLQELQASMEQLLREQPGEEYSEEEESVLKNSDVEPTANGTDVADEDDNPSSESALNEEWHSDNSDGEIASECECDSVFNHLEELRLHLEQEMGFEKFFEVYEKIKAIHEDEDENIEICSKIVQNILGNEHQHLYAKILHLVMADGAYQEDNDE
Procedure, shortened: as §1

[10] = target: MSK1 (h) (Homo sapiens (Human), UniProt O75582); assay: Kinase selectivity panel; type: biochemical; details: duplicate, read-out: % inhibition of control values, MSK1 (h)
Chain of MSK1 (h) (O75582 whole entry): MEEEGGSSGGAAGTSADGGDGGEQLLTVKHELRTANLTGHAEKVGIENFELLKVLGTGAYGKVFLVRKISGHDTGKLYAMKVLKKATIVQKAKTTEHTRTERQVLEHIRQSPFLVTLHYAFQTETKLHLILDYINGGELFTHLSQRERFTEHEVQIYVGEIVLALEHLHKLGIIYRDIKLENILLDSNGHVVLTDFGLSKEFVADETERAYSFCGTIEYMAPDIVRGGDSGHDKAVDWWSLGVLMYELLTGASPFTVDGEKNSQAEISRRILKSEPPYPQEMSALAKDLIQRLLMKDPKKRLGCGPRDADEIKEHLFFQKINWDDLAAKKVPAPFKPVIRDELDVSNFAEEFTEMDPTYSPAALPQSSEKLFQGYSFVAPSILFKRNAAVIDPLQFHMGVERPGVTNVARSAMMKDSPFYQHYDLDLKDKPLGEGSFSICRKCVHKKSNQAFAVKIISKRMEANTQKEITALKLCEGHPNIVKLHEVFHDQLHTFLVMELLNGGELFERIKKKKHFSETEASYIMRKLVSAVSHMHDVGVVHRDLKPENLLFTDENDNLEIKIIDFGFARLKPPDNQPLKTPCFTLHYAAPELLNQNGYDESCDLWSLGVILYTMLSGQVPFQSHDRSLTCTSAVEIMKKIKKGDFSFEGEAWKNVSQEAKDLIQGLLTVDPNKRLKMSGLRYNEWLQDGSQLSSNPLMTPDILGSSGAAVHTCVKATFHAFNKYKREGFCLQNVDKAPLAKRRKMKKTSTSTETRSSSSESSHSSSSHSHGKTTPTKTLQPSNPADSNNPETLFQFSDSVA
Procedure, shortened: as §1

[11] = target: mTOR kinase (h) (FRAP1) (Homo sapiens (Human), UniProt P42345); assay: Kinase selectivity panel; type: biochemical; details: duplicate, read-out: % inhibition of control values, mTOR kinase (h) (FRAP1)
Procedure, shortened: as §1

[12] = target: MEK1/MAP2K1 (h) (Homo sapiens (Human), UniProt Q02750); assay: Kinase selectivity panel; type: biochemical; details: duplicate, read-out: % inhibition of control values, MEK1/MAP2K1 (h)
Chain of MEK1/MAP2K1 (h) (Q02750 whole entry): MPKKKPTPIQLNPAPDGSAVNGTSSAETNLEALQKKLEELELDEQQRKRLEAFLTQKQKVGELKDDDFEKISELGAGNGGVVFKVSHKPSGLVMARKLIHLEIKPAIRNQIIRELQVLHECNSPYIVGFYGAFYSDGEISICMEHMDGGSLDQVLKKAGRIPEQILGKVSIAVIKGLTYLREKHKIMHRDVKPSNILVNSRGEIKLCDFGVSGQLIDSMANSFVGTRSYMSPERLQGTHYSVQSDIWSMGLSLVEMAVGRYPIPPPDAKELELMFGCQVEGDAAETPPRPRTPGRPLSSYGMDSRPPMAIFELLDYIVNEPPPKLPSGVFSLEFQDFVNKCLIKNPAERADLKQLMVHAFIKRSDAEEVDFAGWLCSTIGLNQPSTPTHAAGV
Procedure, shortened: as §1

[13] = LANCE phosphorylation assay, five concentrations 100 μM to 10 nM, duplicate, read-out: IC50
[14] = 10 μM, duplicate, human recombinant GSK-3β, 90 minutes at 22° C.
[15] = Table 5A, method of test I, second assay

inhibition at 10 µM [1] [%]	IC50 [2, 13]	inhibition at 10 µM [3] [%]	inhibition at 10 µM [4] [%]	inhibition at 10 µM [5] [%]	% inhibition of control values, AMPKalpha [6] [%]	inhibition at 10 µM [7] [%]	inhibition at 10 µM [8] [%]	inhibition at 10 µM [9] [%]	inhibition at 10 µM [10] [%]	inhibition at 10 µM [11] [%]	inhibition at 10 µM [12] [%]	% Inhibition [10 μM] [2, 14] [%]	inhibition at 10 µM [2, 14] [%]	IC50 ([2]; Table 5A, method of test I, second assay, read-out: IC50 [μM] Gsk3β) [µM]	IC50 [3, 15] [µM]	IC50 [4, 15] [µM]	IC50 [5, 15] [µM]	SMILES
1	0.4 µM	59	36	1	21													COc1ccc2[nH]nc(C(=O)NCC3CCN(Cc4ccc(C(=O)O)o4)CC3)c2c1 [Compound 24, 5-{[4-({[(5-Methoxy-1H-indazol-3-yl)carbonyl]amino}methyl)piperidin-1-yl]methyl}furan-2-carboxylic acid]
10	0.01 µM	99	100	94	70													COc1ccncc1-c1ccc2[nH]nc(C(=O)NCC3CCN(Cc4ccc(C(=O)O)o4)CC3)c2c1 [Compound 21, 5-({4-[({[5-(4-Methoxypyridin-3-yl)-1H-indazol-3-yl]carbonyl}amino)methyl]piperidin-1-yl}methyl)furan-2-carboxylic acid formate]
0	< 0.6 µM and 0.35 µM	63	27	87	13	0	2	1	8	0	25	94	> 90	0.35	2.9	36	1.5	COc1ccc2[nH]nc(C(=O)NCC3CCN(CCc4ccc(O)cc4)CC3)c2c1 [Compound 1, N-({1-[2-(4-hydroxyphenyl)ethyl]-piperidin-4-yl}methyl)-5-methoxy-1H-indazole-3-carboxamide]
